Counter-ions that a name gives are not always drawn.
Key:
Aβ40 = experiment: Cellular Aβ-lowering assay; type: cell-based; settings: HEK293 cells stably expressing human APP695, Aβ40 in supernatant by ELISA after 18-20 hrs; read-out: Cellular assay Abeta40 IC50
In short: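 HEK293 cells stably expressing human wild-type APP695 were treated with compound for 18-20 h at 37 °C in 0.8% v/v DMSO. Secreted Aβ40 in the supernatant was measured by sandwich ELISA (Aβ40 C-terminus-specific capture, HRP-4G8 detection, TMB read at 450 nm) and quantified against a pure Aβ peptide standard curve.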

[1] = molecular target: T1, endogenous cellular BACE2 (Rattus norvegicus, UniProt Q6IE75); experiment: Assay for BACE inhibition by measuring cellular TMEM27 cleavage; type: cell-based; settings: INS-TMEM27 (INS1e-derived) cells, shed human TMEM27 in supernatant by ELISA
T1 construct: endogenous cellular BACE2 in the Ins1e rat cell line; endogenous in cells; host or cells: INS-TMEM27 (INS1e-derived rat insulinoma cell line with doxycycline-inducible full-length human TMEM27)
T1 sequence (Q6IE75 63-514): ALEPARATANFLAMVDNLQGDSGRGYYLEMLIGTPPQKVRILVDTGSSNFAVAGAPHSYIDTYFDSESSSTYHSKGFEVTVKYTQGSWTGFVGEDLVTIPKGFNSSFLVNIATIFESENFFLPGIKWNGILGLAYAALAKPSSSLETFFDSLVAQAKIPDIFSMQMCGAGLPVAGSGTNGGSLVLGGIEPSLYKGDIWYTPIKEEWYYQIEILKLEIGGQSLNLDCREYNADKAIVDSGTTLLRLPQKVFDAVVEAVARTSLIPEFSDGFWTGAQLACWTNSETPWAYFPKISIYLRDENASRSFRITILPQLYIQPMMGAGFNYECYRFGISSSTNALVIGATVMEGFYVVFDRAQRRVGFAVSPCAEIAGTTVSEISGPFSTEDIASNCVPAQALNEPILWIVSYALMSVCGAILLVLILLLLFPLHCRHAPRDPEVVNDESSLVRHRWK
In short: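 INS1e rat cells with doxycycline-inducible human TMEM27 get inhibitor 2 h before doxycycline (500 ng/ml final), then 46 h further at 37° C. Shed TMEM27 in the supernatant is measured by sandwich ELISA, and the EC50 comes from a curve fit of the ELISA signal.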

SMILES	IC50 (Aβ40) [nM]	IC50 [1] [nM]
C[C@]1(c2cc(NC3CCCC3)ccc2F)N=C(N)COCC1(F)F [Example 64, (R)-5-(5-(cyclopentylamino)-2-fluorophenyl)-6,6-difluoro-5-methyl-2,5,6,7-tetrahydro-1,4-oxazepin-3-amine]	360	400
COc1cnc(C(=O)Nc2ccc(F)c([C@@]3(C)N=C(N)COCC3(F)F)c2)cn1 [Example 109, (R)-N-(3-(3-Amino-6,6-difluoro-5-methyl-2,5,6,7-tetrahydro-1,4-oxazepin-5-yl)-4-fluorophenyl)-5-methoxypyrazine-2-carboxamide formate]	1.9	143
C[C@]1(c2cc(NC(=O)c3ccc(F)cn3)ccc2F)N=C(N)COC[C@@H]1F [Example 62, N-(3-((5R,6R)-3-amino-6-fluoro-5-methyl-2,5,6,7-tetrahydro-1,4-oxazepin-5-yl)-4-fluorophenyl)-5-fluoropicolinamide]	1.8	1
COc1ccc(C(=O)Nc2ccc(F)c([C@@]3(C)N=C(N)COCC3(F)F)c2)nc1 [Example 90, (R)-N-(3-(3-Amino-6,6-difluoro-5-methyl-2,5,6,7-tetrahydro-1,4-oxazepin-5-yl)-4-fluorophenyl)-5-methoxypicolinamide formate]	5	85.3
C[C@]1(c2cc(NC(=O)c3cc(Cl)c(Cl)s3)ccc2F)N=C(N)COCC1(F)F [Example 72, (R)-N-(3-(3-Amino-6,6-difluoro-5-methyl-2,5,6,7-tetrahydro-1,4-oxazepin-5-yl)-4-fluorophenyl)-4,5-dichlorothiophene-2-carboxamide formate,]	590	2440
C[C@@]1(c2cc(NC(=O)c3ccc(Cl)cn3)ccc2F)CCOCC(N)=N1 [Example 5, 5-Chloro-pyridine-2-carboxylic acid [3-((S)-3-amino-5-methyl-2,5,6,7-tetrahydro-[1,4]oxazepin-5-yl)-4-fluoro-phenyl]-amide formate]	0.9	0.885
C[C@]1(c2cc(NC(=O)c3ncc(F)cc3Cl)ccc2F)N=C(N)COCC1(F)F [Example 40, (R)-N-(3-(3-amino-6,6-difluoro-5-methyl-2,5,6,7-tetrahydro-1,4-oxazepin-5-yl)-4-fluorophenyl)-3-chloro-5-fluoropicolinamide formate]	5.9	6.2
CC1(C)OCCC(C)(c2cc(NC(=O)c3ccc(F)cn3)ccc2F)N=C1N (stereo not shown) [Example 28, 5-Fluoro-pyridine-2-carboxylic acid [3-(3-amino-2,2,5-trimethyl-2,5,6,7-tetrahydro-[1,4]oxazepin-5-yl)-4-fluoro-phenyl]-amide]	340	130

The next lines start with the values.

IC50 (Aβ40) [nM]	IC50 [1] [nM]	SMILES
0.7	30.5	CC1(C)OCC(N)=N[C@](C)(c2cc(NC(=O)c3ccc(C#N)cn3)ccc2F)C1(F)F [Example 111, (R)-N-(3-(3-amino-6,6-difluoro-5,7,7-trimethyl-2,5,6,7-tetrahydro-1,4-oxazepin-5-yl)-4-fluorophenyl)-5-cyanopicolinamide]
2200	> 10000	NC1=N[C@@]2(c3cc(NC(=O)c4ccc(OCC(F)(F)F)cn4)ccc3F)C[C@H]2COC1 (racemic) [Example 2, 5-(2,2,2-Trifluoro-ethoxy)-pyridine-2-carboxylic acid [3-((1SR,7RS)-3-amino-5-oxa-2-aza-bicyclo[5.1.0]oct-2-en-1-yl)-4-fluoro-phenyl]-amide]
4	568	CC[C@]1(c2cc(NC(=O)c3ncccc3Cl)ccc2F)N=C(N)COCC1(F)F [Example 76, (R)-N-(3-(3-Amino-5-ethyl-6,6-difluoro-2,5,6,7-tetrahydro-1,4-oxazepin-5-yl)-4-fluorophenyl)-3-chloropicolinamide]
280	29.2	CC[C@]1(c2cc(NC(=O)c3nn(C)cc3Cl)ccc2F)N=C(N)COCC1(F)F [Example 85, (R)-N-(3-(3-Amino-5-ethyl-6,6-difluoro-2,5,6,7-tetrahydro-1,4-oxazepin-5-yl)-4-fluorophenyl)-4-chloro-1-methyl-1H-pyrazole-3-carboxamide]
1	2.6	Cc1cc(Cl)cnc1C(=O)Nc1ccc(F)c([C@@]2(C)N=C(N)COCC2(F)F)c1 [Example 31, (R)-N-(3-(3-amino-6,6-difluoro-5-methyl-2,5,6,7-tetrahydro-1,4-oxazepin-5-yl)-4-fluorophenyl)-5-chloro-3-methylpicolinamide formate]
160	170	C[C@]1(c2cc(NC(=O)c3ncccc3OCC(F)(F)F)ccc2F)N=C(N)COCC1(F)F [Example 59, (R)-N-(3-(3-amino-6,6-difluoro-5-methyl-2,5,6,7-tetrahydro-1,4-oxazepin-5-yl)-4-fluorophenyl)-3-(2,2,2-trifluoroethoxy)picolinamide]

Reference: patent US8673894B2 (Hoffmann-La Roche Inc., priority 2010, dated 2014)
